Results taken from the NIST ThermoML archive (doi:10.1021/je4001697).

Conditions: Liquid, Pulse-echo method

Cc1ccccc1 [toluene]
Conditions	speed of sound [m/s]
240 K, 103.32 kPa	1571
240 K, 1104.2 kPa	1575
240 K, 2104.9 kPa	1578.9
240 K, 3105.7 kPa	1582.8
240 K, 4106.3 kPa	1586.7
240 K, 5107.4 kPa	1590.5
240 K, 6107.7 kPa	1594.3
240 K, 7108.4 kPa	1598.1
240 K, 8109.1 kPa	1601.9
240 K, 9109.8 kPa	1605.7
240 K, 10110 kPa	1609.4
240 K, 12612 kPa	1618.6
240 K, 15114 kPa	1627.7
240 K, 17616 kPa	1636.7
240 K, 20117 kPa	1645.6
240 K, 25121 kPa	1663
240 K, 30124 kPa	1680
240 K, 35127 kPa	1696.5
240 K, 40131 kPa	1712.7
240 K, 45134 kPa	1728.5
240 K, 50138 kPa	1744
240 K, 60144 kPa	1774
240 K, 70151 kPa	1802.9
240 K, 80158 kPa	1830.7
240 K, 90165 kPa	1857.6
240 K, 100172 kPa	1883.6
260 K, 102.53 kPa	1476.8
260 K, 1103.4 kPa	1481.1
260 K, 2104 kPa	1485.4
260 K, 3104.8 kPa	1489.7
260 K, 4105.6 kPa	1493.9
260 K, 5106.5 kPa	1498.1
260 K, 6106.8 kPa	1502.3
260 K, 7107.5 kPa	1506.5
260 K, 8108.3 kPa	1510.6
260 K, 9109 kPa	1514.7
260 K, 10110 kPa	1518.8
260 K, 12612 kPa	1528.8
260 K, 15114 kPa	1538.7
260 K, 17615 kPa	1548.5
260 K, 20117 kPa	1558.1
260 K, 25121 kPa	1576.9
260 K, 30124 kPa	1595.2
260 K, 35128 kPa	1613
260 K, 40131 kPa	1630.4
260 K, 45134 kPa	1647.3
260 K, 50138 kPa	1663.9
260 K, 60145 kPa	1695.8
260 K, 70152 kPa	1726.5
260 K, 80160 kPa	1756
260 K, 90166 kPa	1784.3
260 K, 100174 kPa	1811.7
280 K, 103.62 kPa	1385.5
280 K, 1104.5 kPa	1390.2
280 K, 2105.3 kPa	1395
280 K, 3106.2 kPa	1399.7
280 K, 4107.1 kPa	1404.3
280 K, 5107.6 kPa	1408.9
280 K, 6108.1 kPa	1413.5
280 K, 7108.8 kPa	1418
280 K, 8109.4 kPa	1422.5
280 K, 9110.1 kPa	1427
280 K, 10111 kPa	1431.5
280 K, 12612 kPa	1442.4
280 K, 15114 kPa	1453.2
280 K, 17616 kPa	1463.8
280 K, 20118 kPa	1474.2
280 K, 25122 kPa	1494.5
280 K, 30125 kPa	1514.2
280 K, 35128 kPa	1533.3
280 K, 40132 kPa	1551.9
280 K, 45135 kPa	1570
280 K, 50138 kPa	1587.6
280 K, 60145 kPa	1621.5
280 K, 70152 kPa	1654
280 K, 80159 kPa	1685.1
280 K, 90166 kPa	1714.9
280 K, 100173 kPa	1743.7
300 K, 102.33 kPa	1297.2
300 K, 103.33 kPa	1297.1
300 K, 1103.2 kPa	1302.4
300 K, 2104.1 kPa	1307.6
300 K, 3104.7 kPa	1312.7
300.01 K, 1104.2 kPa	1302.4
300.01 K, 2104.9 kPa	1307.6
300.01 K, 3105.6 kPa	1312.7
300.01 K, 4106.4 kPa	1317.8
300.01 K, 5107 kPa	1322.9
300.01 K, 6107.4 kPa	1327.9
300.01 K, 7108.1 kPa	1332.8
300.01 K, 8108.7 kPa	1337.8
300.01 K, 9109.4 kPa	1342.6
300.01 K, 10110 kPa	1347.5
300.01 K, 12612 kPa	1359.4
300.01 K, 15113 kPa	1371.1
300.01 K, 17615 kPa	1382.5
300.01 K, 20117 kPa	1393.8
300.01 K, 25120 kPa	1415.7
300.01 K, 30124 kPa	1436.8
300.01 K, 35127 kPa	1457.3
300.01 K, 40130 kPa	1477.1
300.01 K, 45133 kPa	1496.4
300.01 K, 50136 kPa	1515.1
300.01 K, 60143 kPa	1551.1
300.01 K, 70150 kPa	1585.4
300.01 K, 80158 kPa	1618.1
300.01 K, 90166 kPa	1649.4
300.01 K, 100172 kPa	1679.5
320 K, 102.82 kPa	1211.6
320 K, 102.83 kPa	1211.6
320 K, 1103.6 kPa	1217.3
320 K, 2104.3 kPa	1223.1
320 K, 3105 kPa	1228.7
320 K, 4105.8 kPa	1234.3
320 K, 5106.6 kPa	1239.9
320 K, 6107.1 kPa	1245.4
320 K, 7107.8 kPa	1250.8
320 K, 8108.5 kPa	1256.2
320 K, 9109.2 kPa	1261.5
320 K, 10110 kPa	1266.8
320 K, 12612 kPa	1279.7
320 K, 15113 kPa	1292.4
320 K, 17615 kPa	1304.8
320 K, 20117 kPa	1317
320 K, 25120 kPa	1340.5
320 K, 30124 kPa	1363.2
320 K, 35127 kPa	1385.1
320 K, 40131 kPa	1406.2
320 K, 45134 kPa	1426.7
320 K, 50138 kPa	1446.5
320 K, 60145 kPa	1484.5
320 K, 70152 kPa	1520.6
320 K, 80159 kPa	1554.9
320 K, 90166 kPa	1587.7
320 K, 100173 kPa	1619.1
340 K, 102.94 kPa	1128.5
340 K, 103.2 kPa	1128.5
340 K, 1103.7 kPa	1134.9
340 K, 1104.1 kPa	1134.9
340 K, 2104.3 kPa	1141.2
340 K, 2104.9 kPa	1141.2
340 K, 3105 kPa	1147.5
340 K, 3105.8 kPa	1147.5
340 K, 4105.8 kPa	1153.6
340 K, 4106.6 kPa	1153.6
340 K, 5107.2 kPa	1159.7
340 K, 6107.7 kPa	1165.7
340 K, 7108.4 kPa	1171.7
340 K, 8109.1 kPa	1177.5
340 K, 9109.7 kPa	1183.4
340 K, 10110 kPa	1189.1
340 K, 12612 kPa	1203.2
340 K, 15114 kPa	1217
340 K, 17615 kPa	1230.4
340 K, 20117 kPa	1243.5
340 K, 25120 kPa	1268.8
340 K, 30124 kPa	1293.1
340 K, 35128 kPa	1316.4
340 K, 40131 kPa	1338.9
340 K, 45135 kPa	1360.6
340 K, 50139 kPa	1381.6
340 K, 60146 kPa	1421.7
340 K, 70153 kPa	1459.5
340 K, 80160 kPa	1495.4
340 K, 90166 kPa	1529.6
340 K, 100174 kPa	1562.3
359.99 K, 10111 kPa	1114.3
359.99 K, 12613 kPa	1129.7
359.99 K, 15114 kPa	1144.6
359.99 K, 17616 kPa	1159.1
359.99 K, 20117 kPa	1173.3
359.99 K, 25121 kPa	1200.5
359.99 K, 30124 kPa	1226.4
359.99 K, 35128 kPa	1251.3
359.99 K, 40131 kPa	1275.1
359.99 K, 45134 kPa	1298.1
359.99 K, 50138 kPa	1320.2
359.99 K, 60145 kPa	1362.3
359.99 K, 70152 kPa	1402
359.99 K, 80159 kPa	1439.4
359.99 K, 90166 kPa	1475
359.99 K, 100173 kPa	1508.9
360 K, 103.4 kPa	1047.6
360 K, 1104.1 kPa	1054.7
360 K, 2104.8 kPa	1061.7
360 K, 3105.4 kPa	1068.6
360 K, 4106.4 kPa	1075.4
360 K, 5107 kPa	1082.1
360 K, 6107.4 kPa	1088.7
360 K, 7108 kPa	1095.2
360 K, 8108.7 kPa	1101.7
360 K, 9109.5 kPa	1108
360 K, 10110 kPa	1114.3
360 K, 12612 kPa	1129.7
380 K, 101.06 kPa	968.43
380 K, 1102.5 kPa	976.37
380 K, 2103.4 kPa	984.15
380 K, 3104.1 kPa	991.81
380 K, 4105 kPa	999.34
380 K, 5105.7 kPa	1006.7
380 K, 6106.1 kPa	1014
380 K, 7106.8 kPa	1021.2
380 K, 8107.6 kPa	1028.3
380 K, 9108.3 kPa	1035.2
380 K, 10109 kPa	1042.1
380 K, 12611 kPa	1058.8
380 K, 15113 kPa	1075
380 K, 17615 kPa	1090.7
380 K, 20117 kPa	1106
380 K, 25120 kPa	1135.2
380 K, 30124 kPa	1162.9
380 K, 35127 kPa	1189.3
380 K, 40131 kPa	1214.5
380 K, 45134 kPa	1238.8
380 K, 50138 kPa	1262.1
380 K, 60144 kPa	1306.3
380 K, 70152 kPa	1347.7
380 K, 80159 kPa	1386.7
380 K, 90166 kPa	1423.6
380 K, 100173 kPa	1458.8
400 K, 603.01 kPa	894.98
400 K, 608.94 kPa	895.04
400 K, 1104.2 kPa	899.42
400 K, 2104.6 kPa	908.15
400 K, 3105.3 kPa	916.7
400 K, 4105.1 kPa	925.08
400 K, 4106 kPa	925.07
400 K, 5106.7 kPa	933.29
400 K, 6107.4 kPa	941.35
400 K, 7108 kPa	949.26
400 K, 8108.7 kPa	957.04
400 K, 9109.3 kPa	964.69
400 K, 10110 kPa	972.21
400 K, 12612 kPa	990.48
400 K, 15113 kPa	1008.1
400 K, 17615 kPa	1025
400 K, 20117 kPa	1041.5
400 K, 25120 kPa	1072.8
400 K, 30123 kPa	1102.4
400 K, 35127 kPa	1130.4
400 K, 40130 kPa	1157.1
400 K, 45134 kPa	1182.7
400 K, 50138 kPa	1207.2
400 K, 60144 kPa	1253.4
400 K, 70152 kPa	1296.5
400 K, 80158 kPa	1337
400 K, 90166 kPa	1375.3
400 K, 100173 kPa	1411.7
420 K, 1102.5 kPa	823.4
420 K, 2103.2 kPa	833.27
420 K, 3103.9 kPa	842.89
420 K, 4104.6 kPa	852.28
420 K, 5105.2 kPa	861.45
420 K, 6105.9 kPa	870.42
420 K, 7106.6 kPa	879.2
420 K, 8107.3 kPa	887.79
420 K, 9108 kPa	896.21
420 K, 10109 kPa	904.48
420 K, 12610 kPa	924.47
420 K, 15112 kPa	943.61
420 K, 17614 kPa	961.99
420 K, 20116 kPa	979.68
420 K, 25119 kPa	1013.3
420 K, 30123 kPa	1044.8
420 K, 35126 kPa	1074.5
420 K, 40130 kPa	1102.7
420 K, 45133 kPa	1129.5
420 K, 50137 kPa	1155.2
420 K, 60144 kPa	1203.5
420 K, 70151 kPa	1248.4
420 K, 80158 kPa	1290.4
420 K, 90165 kPa	1329.9
420 K, 100172 kPa	1367.4
